This experiment concerns the target T1, GABAB receptor (GABABR1a/GABABR2 heterodimer) (Homo sapiens, UniProt O75899+Q9UBS5).
T1 construct: expressed in transfected cells
Kind of experiment: [35S]-GTPγS binding assay, potency of PAM (GABA dose-response curves with and without test compound). The note with it: potency of the positive allosteric modulator; GABA dose-response in presence of test compound. Format: biochemical. From the text:
GABABR1a and GABABR2 were cloned from human brain cDNA and subcloned into pCI-Neo (Promega) and pALTER-1 (Promega), respectively. A GABABR1a-Gαqi5 fusion protein expression vector was constructed using the pCI-Neo-GABABR1a cDNA plasmid and pLEC1-Gαqi5 (Molecular Devices, CA). In order to make the Gαqi5 pertussis toxin insensitive, Cys356 was mutated to Gly using standard PCR methodology with the primers 5′-[…]-3′ (forward) and 5′-GCGGCCG […]-3′ (reverse). The Gαqi5mut cDNA was ligated into the BamHI and NotI sites of pcDNA3.0 (Invitrogen). The GABAB R1a coding sequence was amplified by PCR from pCI-Neo-GABABR1a using the primers, 5′-[…]-3′ (forward) and 5′-[…]-3′ (reverse) and subcloned into the BamHI site of pcDNA3.0-Gαqi5mut.
For generation of a cell line expressing the GABABR1a/GABABR2 heterodimer, GABABR1a plasmid DNA (4 μg) GABABR2 plasmid DNA (4 μg) and lipofectamine (24 μl) were mixed in 5 ml OptiMEM and incubated for 45 minutes at room temperature. The cells were exposed to the transfection medium for 5 hours, which then was replaced with culture medium. The cells were cultured for an additional 10 days before selection agents (300 μg/ml hygromycin and 400 μg/ml geneticin) were added. Twenty-four days after transfection, single cell sorting into 96-well plates by flow cytometry was performed using a FACS Vantage SE (Becton Dickinson, Palo Alto, Calif.). After expansion, the GABAB receptor functional response was tested using the FLIPR assay described below. The clone with the highest functional response was collected, expanded and then subcloned by single cell sorting. The clonal cell line with the highest peak response in the FLIPR was used in the present study.
For generation of a stable cell line expressing GABABR1a-Gαqi5 fusion protein and GABABR2, GABABR1a-Gαqi5mut plasmid DNA (8 μg) GABABR2 plasmid DNA (8 μg) and lipofectamine (24 μl) were mixed in 5 ml OptiMEM and incubated for 45 minutes at room temperature. The cells were exposed to the transfection medium for 5 hours, which then was replaced with culture medium. After forty-eight hours, the cells were detached and seeded in 6 well plates (2000 cells/well) and grown in culture medium supplemented with geneticin (400 μg/ml) and zeocin (250 μg/ml). After 4 days, cells from single colonies were collected and transferred to a 24-well plate. After 10 days, the cell clones were seeded in T-25 flasks and grown for another 16 days before they were tested for GABAB receptor mediated functional response. […] The clonal cell line that gave the highest peak response in the FLIPR was used in the present study.
[^35S]-GTPγS binding assays were performed at 30° C. for 45 min in membrane buffer (100 mM NaCl, 5 mM MgCl2, 1 mM EDTA, 50 mM HEPES, pH 7.4) containing 0.025 μg/μl of membrane protein (prepared from the cell lines described above) with 0.01% bovine serum albumin (fatty acid free), 10 μM GDP, 10 μM DTT and 0.53 nM [^35S]-GTPγS (Amersham-Pharmacia Biotech) in a final volume of 200 μl. Non-specific binding was determined in the presence of 20 μM GTPγS. The reaction was started by the addition of GABA at concentration between 1 mM and 0.1 nM in the presence or absence of the required concentration of PAM. The reaction was terminated by addition of ice-cold wash buffer (50 mM Tris-HCl, 5 mM MgCl2, 50 mM NaCl, pH 7.4) followed by rapid filtration under vacuum through Printed Filtermat A glass fiber filters (Wallac) (0.05% PEI treated) using a Micro 96 Harvester (Skatron Instruments). The filters were dried for 30 min at 50° C., then a paraffin scintillant pad was melted onto the filters and the bound radioactivity was determined using a 1450 Microbeta Trilux (Wallac) scintillation counter.
GABA dose-response curves in the presence and absence of test compounds were constructed using the 4-parameter logistic equation, y=ymax+((ymin−ymax)/1+(x/C)^D), where C=EC50 and D=slope factor.
A general note: Binding of GTPγS marks nucleotide exchange on a G protein.

T1 sequence (Q9UBS5 15-961 limits assumed): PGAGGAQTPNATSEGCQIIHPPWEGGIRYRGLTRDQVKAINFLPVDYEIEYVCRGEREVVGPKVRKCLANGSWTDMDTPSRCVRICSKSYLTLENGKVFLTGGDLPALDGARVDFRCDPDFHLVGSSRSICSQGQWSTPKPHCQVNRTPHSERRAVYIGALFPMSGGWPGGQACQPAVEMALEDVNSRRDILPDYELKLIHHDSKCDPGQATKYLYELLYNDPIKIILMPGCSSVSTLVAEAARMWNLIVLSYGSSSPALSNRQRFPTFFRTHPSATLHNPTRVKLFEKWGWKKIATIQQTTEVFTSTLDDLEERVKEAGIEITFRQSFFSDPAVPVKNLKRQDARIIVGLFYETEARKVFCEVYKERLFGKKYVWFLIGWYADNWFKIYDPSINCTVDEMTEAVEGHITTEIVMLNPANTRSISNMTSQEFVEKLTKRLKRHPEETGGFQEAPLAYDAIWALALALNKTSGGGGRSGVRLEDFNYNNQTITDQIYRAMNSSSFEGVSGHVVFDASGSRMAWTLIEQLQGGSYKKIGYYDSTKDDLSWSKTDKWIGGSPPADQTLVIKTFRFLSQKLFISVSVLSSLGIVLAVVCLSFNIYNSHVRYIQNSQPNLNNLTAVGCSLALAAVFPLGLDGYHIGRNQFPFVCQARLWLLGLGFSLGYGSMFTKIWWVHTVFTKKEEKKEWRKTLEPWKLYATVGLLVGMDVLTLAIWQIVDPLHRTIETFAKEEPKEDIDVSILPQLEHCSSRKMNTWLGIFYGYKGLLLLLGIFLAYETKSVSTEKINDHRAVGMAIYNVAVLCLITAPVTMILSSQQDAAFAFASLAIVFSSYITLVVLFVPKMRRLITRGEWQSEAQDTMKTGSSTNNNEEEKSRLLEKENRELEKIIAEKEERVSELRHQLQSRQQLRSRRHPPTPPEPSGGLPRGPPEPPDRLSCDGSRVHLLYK
T1 sequence (O75899 42-941): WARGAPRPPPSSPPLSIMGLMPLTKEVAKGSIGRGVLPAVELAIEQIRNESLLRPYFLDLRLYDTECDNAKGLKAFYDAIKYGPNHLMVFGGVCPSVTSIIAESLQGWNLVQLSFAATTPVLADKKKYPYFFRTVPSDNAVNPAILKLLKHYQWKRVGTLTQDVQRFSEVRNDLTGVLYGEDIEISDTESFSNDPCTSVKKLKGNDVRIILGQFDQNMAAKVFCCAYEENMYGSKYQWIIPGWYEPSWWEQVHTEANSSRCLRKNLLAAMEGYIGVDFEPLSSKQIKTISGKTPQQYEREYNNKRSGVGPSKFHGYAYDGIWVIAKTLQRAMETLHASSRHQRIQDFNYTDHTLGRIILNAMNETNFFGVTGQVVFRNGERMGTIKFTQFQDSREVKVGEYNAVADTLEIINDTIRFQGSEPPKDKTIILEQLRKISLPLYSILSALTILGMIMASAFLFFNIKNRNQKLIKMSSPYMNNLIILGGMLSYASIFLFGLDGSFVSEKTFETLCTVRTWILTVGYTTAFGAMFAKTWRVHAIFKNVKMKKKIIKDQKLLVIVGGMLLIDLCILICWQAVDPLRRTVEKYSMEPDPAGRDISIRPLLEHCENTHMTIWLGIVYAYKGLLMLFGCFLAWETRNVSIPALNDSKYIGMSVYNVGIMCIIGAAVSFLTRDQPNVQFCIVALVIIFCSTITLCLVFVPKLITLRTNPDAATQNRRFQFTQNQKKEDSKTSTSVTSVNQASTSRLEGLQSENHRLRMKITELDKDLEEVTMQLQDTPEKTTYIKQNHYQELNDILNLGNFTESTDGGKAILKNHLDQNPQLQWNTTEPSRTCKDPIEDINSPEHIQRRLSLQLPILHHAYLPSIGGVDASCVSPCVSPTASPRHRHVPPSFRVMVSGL

The term EC50 denotes the concentration needed to bring the measured effect to its halfway point. Turning to `CCc1nc2c(c(=O)n(Cc3ccc(Cl)cc3)c(=O)n2Cc2ccccc2)n1C` [Example 1, 3-benzyl-1-(4-chlorobenzyl)-8-ethyl-7-methyl-3,7-dihydro-1H-purine-2,6-dione], the EC50 was 6.33 µM.

As to `CCc1nc2c(c(=O)n(Cc3ccc(Cl)cc3)c(=O)n2CCC(C)(C)C)n1C` [Example 2, 1-(4-Chlorobenzyl)-3-(3,3-dimethylbutyl)-8-ethyl-7-methyl-3,7-dihydro-1H-purine-2,6-dione], the EC50 worked out at 1.5 µM.

Take `CCc1nc2c(c(=O)n(Cc3ccc(Cl)cc3)c(=O)n2CC(=O)C(C)(C)C)n1C` [Example 4, 1-(4-Chlorobenzyl)-3-(3,3-dimethyl-2-oxobutyl)-8-ethyl-7-methyl-3,7-dihydro-1H-purine-2,6-dione]: the EC50 amounted to 1.6 µM.

With `CCc1nc2c(c(=O)n(Cc3ccc(Cl)cc3)c(=O)n2C[C@H]2CCC(=O)N2)n1C` [Example 6, 1-(4-Chlorobenzyl)-8-ethyl-7-methyl-3-{[(2R)-5-oxopyrrolidin-2-yl]methyl}-3,7-dihydro-1H-purine-2,6-dione], the EC50 is 16.4 µM.

As for `CCc1nc2c(c(=O)n(Cc3ccc(Cl)cc3)c(=O)n2CC(=O)c2ccncc2)n1C` [Example 7, 1-(4-Chlorobenzyl)-8-ethyl-7-methyl-3-(2-oxo-2-pyridin-4-ylethyl)-3,7-dihydro-1H-purine-2,6-dione], the EC50 came out at 7.9 µM.

For `CCc1nc2c(c(=O)n(Cc3ccc(Cl)cc3)c(=O)n2CC(C)C)n1C` [Example 8, 1-(4-Chlorobenzyl)-8-ethyl-3-isobutyl-7-methyl-3,7-dihydro-1H-purine-2,6-dione], the half-maximal effective concentration (EC50) worked out at 2.7 µM.

On to `CCc1nc2c(c(=O)n(Cc3ccc(Cl)cc3)c(=O)n2C[Si](C)(C)C)n1C` [Example 9, 1-(4-Chlorobenzyl)-8-ethyl-7-methyl-3-[(trimethylsilyl)methyl]-3,7-dihydro-1H-purine-2,6-dione], for which the EC50 turned out to be 2.1 µM.

Turning to `CCc1nc2c(c(=O)n(Cc3ccc(Cl)cc3)c(=O)n2C[C@@H]2CCC(=O)N2)n1C` [Example 10, 1-(4-Chlorobenzyl)-8-ethyl-7-methyl-3-{[(2S)-5-oxopyrrolidin-2-yl]methyl}-3,7-dihydro-1H-purine-2,6-dione], the concentration for a half-maximal effect (EC50) is 14.6 µM.

In the case of `CCc1nc2c(c(=O)n(Cc3ccc(Cl)cc3)c(=O)n2CC(=O)OC)n1C` [Example 11, Methyl [1-(4-chlorobenzyl)-8-ethyl-7-methyl-2,6-dioxo-1,2,6,7-tetrahydro-3H-purin-3-yl]acetate], the EC50 came to 8.5 µM.

Take `C=CCn1c(=O)n(Cc2ccc(Cl)cc2)c(=O)c2c1nc(CC)n2C` [Example 12, 3-Allyl-1-(4-chlorobenzyl)-8-ethyl-7-methyl-3,7-dihydro-1H-purine-2,6-dione]: the EC50 is 6 µM.

As for `CCc1nc2c(c(=O)n(Cc3ccc(Cl)cc3)c(=O)n2Cc2ccc(Cl)cc2)n1C` [Example 13, 1,3-Bis(4-chlorobenzyl)-8-ethyl-7-methyl-3,7-dihydro-1H-purine-2,6-dione], the EC50 was 5.2 µM.

`CCc1nc2c(c(=O)n(Cc3ccc(Cl)cc3)c(=O)n2CC2OCCO2)n1C` [Example 14, 1-(4-Chlorobenzyl)-3-(1,3-dioxolan-2-ylmethyl)-8-ethyl-7-methyl-3,7-dihydro-1H-purine-2,6-dione]: the concentration for a half-maximal effect (EC50) was 12.3 µM.

As for `CCc1nc2c(c(=O)n(Cc3ccc(Cl)cc3)c(=O)n2Cc2ccccn2)n1C` [Example 15, 1-(4-Chlorobenzyl)-8-ethyl-7-methyl-3-(pyridin-2-ylmethyl)-3,7-dihydro-1H-purine-2,6-dione], the concentration for a half-maximal effect (EC50) was found to be 7.8 µM.

As to `CCc1nc2c(c(=O)n(Cc3ccc(Cl)cc3)c(=O)n2Cc2cc(C)on2)n1C` [Example 16, 1-(4-Chlorobenzyl)-8-ethyl-7-methyl-3-[(5-methylisoxazol-3-yl)methyl]-3,7-dihydro-1H-purine-2,6-dione], the half-maximal effective concentration (EC50) worked out at 6.8 µM.

With `CCc1nc2c(c(=O)n(Cc3ccc(Cl)cc3)c(=O)n2Cc2cccnc2)n1C` [Example 18, 1-(4-Chlorobenzyl)-8-ethyl-7-methyl-3-(pyridin-3-ylmethyl)-3,7-dihydro-1H-purine-2,6-dione], the EC50 was found to be 3.3 µM.

In the case of `CCc1nc2c(c(=O)n(Cc3ccc(Cl)cc3)c(=O)n2Cc2ccc(OC(F)F)cc2)n1C` [Example 19, 1-(4-Chlorobenzyl)-3-[4-(difluoromethoxy)benzyl]-8-ethyl-7-methyl-3,7-dihydro-1H-purine-2,6-dione], the concentration for a half-maximal effect (EC50) was 3.7 µM.

`CCc1nc2c(c(=O)n(Cc3ccc(Cl)cc3)c(=O)n2CC2CCCCC2)n1C` [Example 20, 1-(4-Chlorobenzyl)-3-(cyclohexylmethyl)-8-ethyl-7-methyl-3,7-dihydro-1H-purine-2,6-dione]: the EC50 is 3 µM.

With `CCc1nc2c(c(=O)n(Cc3ccc(Cl)cc3)c(=O)n2CCCOC(C)(C)C)n1C` [Example 21, 3-(3-tert-butoxypropyl)-1-(4-chlorobenzyl)-8-ethyl-7-methyl-3,7-dihydro-1H-purine-2,6-dione], the half-maximal effective concentration (EC50) is 7.2 µM.

For the compound `CCc1nc2c(c(=O)n(Cc3ccc(Cl)cc3)c(=O)n2Cc2ccc(S(C)(=O)=O)cc2)n1C` [Example 22, 1-(4-chlorobenzyl)-8-ethyl-7-methyl-3-[4-(methylsulfonyl)benzyl]-3,7-dihydro-1H-purine-2,6-dione], the EC50 was determined as 2.5 µM.

On to `CCc1nc2c(c(=O)n(Cc3ccc(Cl)cc3)c(=O)n2CC(O)C(F)(F)F)n1C` (centres unmarked) [Example 23, 1-(4-chlorobenzyl)-8-ethyl-7-methyl-3-(3,3,3-trifluoro-2-hydroxypropyl)-3,7-dihydro-1H-purine-2,6-dione], for which the EC50 was 2.1 µM.

As for `CCc1nc2c(c(=O)n(Cc3ccc(Cl)cc3)c(=O)n2CC2COc3ccccc3O2)n1C` (centres unmarked) [Example 24, 1-(4-chlorobenzyl)-3-(2,3-dihydro-1,4-benzodioxin-2-ylmethyl)-8-ethyl-7-methyl-3,7-dihydro-1H-purine-2,6-dione], the concentration giving a half-maximal response (EC50) turned out to be 5.1 µM.

For the compound `CCc1nc2c(c(=O)n(Cc3ccc(Cl)cc3)c(=O)n2Cc2ccc(SC(F)(F)F)cc2)n1C` [Example 25, 1-(4-chlorobenzyl)-8-ethyl-7-methyl-3-{4-[(trifluoromethyl)thio]benzyl}-3,7-dihydro-1H-purine-2,6-dione], the EC50 was 5.3 µM.

Regarding `CCc1nc2c(c(=O)n(Cc3ccc(Cl)cc3)c(=O)n2Cc2ccc(-n3cccn3)cc2)n1C` [Example 26, 1-(4-chlorobenzyl)-8-ethyl-7-methyl-3-[4-(1H-pyrazol-1-yl)benzyl]-3,7-dihydro-1H-purine-2,6-dione], the half-maximal effective concentration (EC50) was 3.5 µM.

As to `CCc1nc2c(c(=O)n(Cc3ccc(Cl)cc3)c(=O)n2CCN(CC)CC)n1C` [Example 27, 1-(4-chlorobenzyl)-3-[2-(diethylamino)ethyl]-8-ethyl-7-methyl-3,7-dihydro-1H-purine-2,6-dione], the EC50 stood at 15.6 µM.

Turning to `CCc1nc2c(c(=O)n(Cc3ccc(Cl)cc3)c(=O)n2CC(=O)c2ccccc2)n1C` [Example 28, 1-(4-chlorobenzyl)-8-ethyl-7-methyl-3-(2-oxo-2-phenylethyl)-3,7-dihydro-1H-purine-2,6-dione], the 50% effective concentration (EC50) was 2.6 µM.

`CCc1nc2c(c(=O)n(Cc3ccc(Cl)cc3)c(=O)n2CCO[Si](C)(C)C(C)(C)C)n1C` [Example 29, 3-(2-{[tert-butyl(dimethyl)silyl]oxy}ethyl)-1-(4-chlorobenzyl)-8-ethyl-7-methyl-3,7-dihydro-1H-purine-2,6-dione]: the EC50 turned out to be 8.6 µM.

The values above are taken from patent US20090023704A1, “Novel Compounds 737” (ASTRAZENECA AB, priority 2007, published 2009).
